# Source: patent US7919508B2, “3-piperidinylisochroman-5-ols as dopamine agonists” (Aventis Pharmaceuticals Inc., priority 2004, dated 2011)
# Where a name gives a salt, the structure may show the parent alone.
# How the values were obtained:
# [1] = biological target: T1, human dopamine D1 receptor (Homo sapiens, UniProt P21728); experiment: [3H]-SCH-23390 binding to cloned human dopamine D1 receptors (CHO cell membranes); details: competitive binding, [3H]-SCH-23390, cloned human D1 in CHO membranes; read-out: D1 affinity Ki
# T1 construct: A 1.4 Kb Hind III to Xho I fragment was subcloned into the vector pMMLV; expressed in transfected cells; host or cells: CHO cells, clone CHO-D1M#9 (plasmid pHD1MMLV), membranes
# T1 sequence (P21728 whole entry, the tested form may be a part): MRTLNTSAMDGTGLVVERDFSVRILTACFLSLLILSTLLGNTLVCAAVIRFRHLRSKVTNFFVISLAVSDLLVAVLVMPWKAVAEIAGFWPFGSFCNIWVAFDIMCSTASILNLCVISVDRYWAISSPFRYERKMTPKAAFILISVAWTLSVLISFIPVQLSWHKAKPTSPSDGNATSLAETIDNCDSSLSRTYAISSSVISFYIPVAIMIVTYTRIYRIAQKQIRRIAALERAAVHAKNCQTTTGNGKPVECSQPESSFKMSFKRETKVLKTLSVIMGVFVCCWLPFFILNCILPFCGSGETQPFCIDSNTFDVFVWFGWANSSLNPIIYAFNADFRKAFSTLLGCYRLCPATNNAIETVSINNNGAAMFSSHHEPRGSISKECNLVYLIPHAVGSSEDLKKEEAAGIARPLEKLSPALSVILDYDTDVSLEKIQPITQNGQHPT
# D1 receptor = biological target: T2, D1 receptor (Homo sapiens, UniProt P21728); experiment: D1 Activation Adenylyl Cyclase Assay (cAMP FlashPlate, D1 transfected CHO cell line); type: cell-based; details: agonist activity at the D1 receptor, adenylate cyclase assay, D1 transfected CHO cell line; read-out: D1 EC50
# T2 construct: expressed in transfected cells; host or cells: D1 transfected CHO cell line
# T2 sequence (P21728 whole entry): as the sequence (P21728 whole entry, the tested form may be a part) above
# Summary of the method: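 D1-transfected CHO cells (50,000/well) were exposed to compound 1/10 serial dilutions for 8 min at RT; cAMP measured by competitive 125I-cAMP FlashPlate against a standard curve. Response normalised between basal and saturating D1 agonist; EC50 at half-maximal stimulation, plateau reported as % maximal dopamine stimulation.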
# [2] = biological target: human dopamine D2Long (D2L) receptors (Homo sapiens, UniProt P14416)
# Sequence of human dopamine D2Long (D2L) receptors (P14416 whole entry): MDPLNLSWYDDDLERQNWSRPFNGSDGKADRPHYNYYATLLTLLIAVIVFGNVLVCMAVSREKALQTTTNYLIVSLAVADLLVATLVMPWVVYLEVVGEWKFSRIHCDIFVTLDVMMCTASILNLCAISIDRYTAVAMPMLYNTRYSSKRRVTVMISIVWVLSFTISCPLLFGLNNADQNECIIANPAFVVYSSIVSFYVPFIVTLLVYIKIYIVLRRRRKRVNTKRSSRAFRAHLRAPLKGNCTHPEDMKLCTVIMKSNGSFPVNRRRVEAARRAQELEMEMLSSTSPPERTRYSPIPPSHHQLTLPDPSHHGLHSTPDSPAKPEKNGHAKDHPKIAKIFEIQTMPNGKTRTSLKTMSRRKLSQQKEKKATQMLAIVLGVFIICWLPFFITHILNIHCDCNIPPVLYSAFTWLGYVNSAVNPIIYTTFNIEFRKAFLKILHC
smiles,measurement,setting,value
"CCNC[C@@H]1O[C@H](C2CCN(CC(=O)c3ccccc3)CC2)Cc2c1ccc(C)c2O [Example 179, 2-[4-((1R,3S)-1-Ethylaminomethyl-5-hydroxy-6-methyl-isochroman-3-yl)-piperidin-1-yl]-1-phenyl-ethanone]",Ki,[1],139 nM
same,EC50,D1 receptor,810 nM
same,Ki,[2],215 nM
"Cc1ccc2c(c1O)C[C@@H](C1CCN(CCNC(=O)c3ccc(F)cc3)CC1)O[C@H]2CN [Example 189, N-{2-[4-((1R,3S)-1-Aminomethyl-5-hydroxy-6-methylisochroman-3-yl)-piperidin-1-yl]ethyl}-4-fluorobenzamide dihydrobromide]",Ki,[1],312 nM
same,EC50,D1 receptor,270 nM
same,Ki,[2],61 nM
"Cc1ccc2c(c1O)C[C@@H](C1CCN(CCNC(=O)c3ccccc3)CC1)O[C@H]2CN [Example 191, N-{2-[4-((1R,3S)-1-Aminomethyl-5-hydroxy-6-methylisochroman-3-yl)-piperidin-1-yl]-ethyl}benzamide dihydrobromide]",Ki,[1],276 nM
same,EC50,D1 receptor,180 nM
same,Ki,[2],415 nM
"Cc1ccc2c(c1O)C[C@@H](C1CCN(CCNC(=O)Nc3ccc(F)cc3)CC1)O[C@H]2CN [Example 192, (1R,3S)-1-{2-[4-(1-Aminomethyl-5-hydroxy-6-methyl-isochroman-3-yl)-piperidin-1-yl]ethyl}-3-(4-fluoro-phenyl)urea dihydrobromide]",Ki,[1],77 nM
same,EC50,D1 receptor,11 nM
same,Ki,[2],477 nM
"Cc1ccc2c(c1O)C[C@@H](C1CCN(CCNC(=O)Nc3ccccc3)CC1)O[C@H]2CN [Example 193, 1-{2-[4-((1R,3S)-1-Aminomethyl-5-hydroxy-6-methyl-isochroman-3-yl)piperidin-1-yl]-ethyl}-3-phenylurea dihydrobromide]",Ki,[1],50 nM
same,EC50,D1 receptor,43 nM
same,Ki,[2],284 nM
"CCC(CN1CCC([C@@H]2Cc3c(ccc(C)c3O)[C@H](CNC)O2)CC1)c1ccccc1 (stereo partly drawn) [Example 194, (1R,3S)-6-Methyl-1-methylaminomethyl-3-[1-(2-phenylbutyl)-piperidin-4-yl]isochroman-5-ol dihydrochloride]",Ki,[1],54 nM
same,EC50,D1 receptor,34 nM
same,Ki,[2],639 nM
